Assay results reported in ChEMBL document CHEMBL1123334, “4-Amino-6-chloro-2-piperazinopyrimidines with selective affinity for alpha 2-adrenoceptors” (J Med Chem, 1986).

Legend:
[1] = target: T1, Adrenergic receptor alpha-1 (Rattus norvegicus, UniProt P15823+P23944+P43140); assay: In vitro binding affinity was measured as the inhibition of [3H]WB-4101 binding to alpha-1 adrenergic receptor of rat cortical membranes; type: cell membranes, Membrane
T1 sequence (P15823 whole entry): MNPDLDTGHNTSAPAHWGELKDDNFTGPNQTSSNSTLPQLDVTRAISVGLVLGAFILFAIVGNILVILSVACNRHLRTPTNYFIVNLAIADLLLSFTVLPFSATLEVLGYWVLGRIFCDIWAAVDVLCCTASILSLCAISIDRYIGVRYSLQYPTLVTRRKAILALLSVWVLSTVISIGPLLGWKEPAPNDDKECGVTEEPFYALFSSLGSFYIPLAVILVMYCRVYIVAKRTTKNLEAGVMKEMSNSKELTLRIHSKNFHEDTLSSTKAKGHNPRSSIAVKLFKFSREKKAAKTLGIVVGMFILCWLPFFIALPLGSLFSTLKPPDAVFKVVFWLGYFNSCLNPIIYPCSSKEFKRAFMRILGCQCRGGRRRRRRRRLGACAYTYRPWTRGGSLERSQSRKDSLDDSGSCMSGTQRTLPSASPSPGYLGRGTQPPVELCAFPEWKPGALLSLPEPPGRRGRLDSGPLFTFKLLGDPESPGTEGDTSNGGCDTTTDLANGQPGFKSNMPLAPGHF
T1 sequence (P23944 whole entry): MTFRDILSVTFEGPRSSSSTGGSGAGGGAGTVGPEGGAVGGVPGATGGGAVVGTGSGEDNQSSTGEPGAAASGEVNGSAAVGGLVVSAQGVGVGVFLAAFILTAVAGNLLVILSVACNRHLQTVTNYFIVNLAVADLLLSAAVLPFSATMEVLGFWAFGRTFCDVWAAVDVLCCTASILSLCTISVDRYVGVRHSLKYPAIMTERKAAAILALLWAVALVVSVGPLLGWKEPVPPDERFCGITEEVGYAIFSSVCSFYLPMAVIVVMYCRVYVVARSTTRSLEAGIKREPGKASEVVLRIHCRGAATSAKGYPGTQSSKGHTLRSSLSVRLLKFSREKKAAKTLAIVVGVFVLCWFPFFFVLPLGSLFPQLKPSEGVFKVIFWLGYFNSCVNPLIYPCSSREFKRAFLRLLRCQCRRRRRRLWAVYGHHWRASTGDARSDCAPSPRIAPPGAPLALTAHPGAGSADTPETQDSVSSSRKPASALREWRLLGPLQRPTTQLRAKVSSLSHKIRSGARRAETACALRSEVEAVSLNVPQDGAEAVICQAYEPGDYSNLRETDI
T1 sequence (P43140 whole entry): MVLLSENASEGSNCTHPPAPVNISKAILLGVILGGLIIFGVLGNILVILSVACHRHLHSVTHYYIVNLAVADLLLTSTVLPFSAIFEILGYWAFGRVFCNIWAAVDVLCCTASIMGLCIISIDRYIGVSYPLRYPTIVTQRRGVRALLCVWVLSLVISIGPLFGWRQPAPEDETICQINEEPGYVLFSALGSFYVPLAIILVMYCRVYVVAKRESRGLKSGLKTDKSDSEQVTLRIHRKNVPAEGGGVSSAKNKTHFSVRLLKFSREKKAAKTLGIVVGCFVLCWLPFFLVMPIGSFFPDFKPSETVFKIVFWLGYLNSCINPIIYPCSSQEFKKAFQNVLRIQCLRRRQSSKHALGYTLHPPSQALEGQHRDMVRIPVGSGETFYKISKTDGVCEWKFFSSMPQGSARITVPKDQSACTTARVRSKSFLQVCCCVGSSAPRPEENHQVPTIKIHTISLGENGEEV

[2] = target: T2, Adrenergic receptor alpha-2 (Rattus norvegicus, UniProt P22086+P19328+P22909)
T2 sequence (P22086 whole entry): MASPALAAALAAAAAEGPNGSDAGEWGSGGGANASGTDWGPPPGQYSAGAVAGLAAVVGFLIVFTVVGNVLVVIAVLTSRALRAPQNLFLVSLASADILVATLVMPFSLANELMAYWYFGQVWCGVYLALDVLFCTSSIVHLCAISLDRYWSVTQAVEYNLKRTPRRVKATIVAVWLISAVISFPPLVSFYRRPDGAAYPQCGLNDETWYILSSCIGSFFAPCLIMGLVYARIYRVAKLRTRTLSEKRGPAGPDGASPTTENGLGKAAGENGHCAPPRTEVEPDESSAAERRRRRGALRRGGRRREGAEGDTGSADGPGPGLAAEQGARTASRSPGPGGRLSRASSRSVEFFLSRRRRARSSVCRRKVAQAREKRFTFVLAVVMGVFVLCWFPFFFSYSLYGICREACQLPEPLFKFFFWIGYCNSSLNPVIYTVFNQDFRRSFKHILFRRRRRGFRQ
T2 sequence (P19328 whole entry): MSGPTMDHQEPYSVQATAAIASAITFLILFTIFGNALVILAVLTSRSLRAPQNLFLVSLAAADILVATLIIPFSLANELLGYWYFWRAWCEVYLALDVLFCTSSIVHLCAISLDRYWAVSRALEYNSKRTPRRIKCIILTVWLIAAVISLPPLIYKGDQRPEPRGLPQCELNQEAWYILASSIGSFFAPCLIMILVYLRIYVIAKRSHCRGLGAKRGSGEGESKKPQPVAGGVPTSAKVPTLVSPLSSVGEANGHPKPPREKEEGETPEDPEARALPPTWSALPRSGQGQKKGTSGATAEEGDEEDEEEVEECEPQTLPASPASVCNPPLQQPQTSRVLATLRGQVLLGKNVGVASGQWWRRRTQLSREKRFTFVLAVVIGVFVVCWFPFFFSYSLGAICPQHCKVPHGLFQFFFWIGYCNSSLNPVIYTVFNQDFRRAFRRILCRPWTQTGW
T2 sequence (P22909 whole entry): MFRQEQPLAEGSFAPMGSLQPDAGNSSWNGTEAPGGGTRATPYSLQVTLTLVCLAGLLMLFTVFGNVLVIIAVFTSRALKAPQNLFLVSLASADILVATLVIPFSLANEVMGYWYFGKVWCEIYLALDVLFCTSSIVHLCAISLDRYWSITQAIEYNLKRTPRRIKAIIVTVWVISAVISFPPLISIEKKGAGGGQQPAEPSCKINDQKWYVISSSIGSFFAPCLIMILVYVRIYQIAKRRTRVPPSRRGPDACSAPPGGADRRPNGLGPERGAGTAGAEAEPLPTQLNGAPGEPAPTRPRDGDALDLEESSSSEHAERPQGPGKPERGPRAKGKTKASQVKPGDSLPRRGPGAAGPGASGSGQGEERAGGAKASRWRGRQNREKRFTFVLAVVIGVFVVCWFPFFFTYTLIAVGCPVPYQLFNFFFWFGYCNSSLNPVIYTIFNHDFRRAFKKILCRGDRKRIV

[3] = target: T2, Adrenergic receptor alpha-2; assay: Inhibition of [3H]idazoxan binding to alpha-2 adrenergic receptor of rat cortical membranes; type: cell membranes, Membrane
Dopamine receptor = assay: In vitro binding affinity to Dopamine receptors of rat striatal membranes by [3H]spiroperidol displacement.
[4] = target: T2, Adrenergic receptor alpha-2; assay: In vitro binding affinity was measured as the inhibition of [3H]idazoxan to alpha-2 adrenergic receptors of rat cortical membranes; type: cell membranes, Membrane

CNc1nc(N2CCN(C)CC2)nc(Cl)c1SC
Ki [1]: 1.8 µM
Ki [2]: 0.36 µM

CCNc1nc(N2CCN(C)CC2)nc(Cl)c1SC
Ki [1]: 1.8 µM
Ki [2]: 0.09 µM

CSc1c(Cl)nc(N2CCNCC2)nc1NC(C)C
Ki [1]: 0.5 µM
Ki [3]: 0.062 µM
Ki (Dopamine receptor): 3 µM
Ki [2]: 0.036 µM

COc1c(Cl)nc(N2CCN(C)CC2)nc1NC1CCCC1
Ki [1]: 1.7 µM
Ki [3]: 0.029 µM
Ki (Dopamine receptor): 0.67 µM
Ki [2]: 0.05 µM

CSc1c(Cl)nc(N2CCN(C)CC2)nc1NC1CCCC1
Ki [1]: 0.076 µM
Ki (Dopamine receptor): 1.2 µM
Ki [2]: 0.022 µM

CC(C)Nc1cc(Cl)nc(N2CCN(C)CC2)n1
Ki [1]: > 0.18 µM
Ki [4]: 0.2 µM
Ki [2]: 0.13 µM

CSc1c(Cl)nc(N2CCN(C)CC2)nc1NC(C)(C)C
Ki [1]: 0.45 µM
Ki (Dopamine receptor): 0.92 µM
Ki [2]: 0.18 µM

CNc1nc(N2CCN(C)CC2)nc(Cl)c1OC
Ki [1]: 1.7 µM
Ki [2]: 0.15 µM

CSc1c(N)nc(N2CCN(C)CC2)nc1Cl
Ki [1]: 0.82 µM
Ki (Dopamine receptor): 1 µM
Ki [2]: 0.62 µM

CNc1nc(N2CCN(C)CC2)nc(Cl)c1Br
Ki [1]: 0.18 µM
Ki (Dopamine receptor): 0.2 µM
Ki [2]: 0.15 µM

CSc1c(Cl)nc(N2CCN(C)CC2)nc1NCc1ccccc1
Ki [1]: 0.1 µM
Ki (Dopamine receptor): 0.014 µM
Ki [2]: 1.5 µM

Cc1c(Cl)nc(N2CCNCC2)nc1NC(C)C
Ki [1]: 0.86 µM
Ki [3]: 0.013 µM
Ki (Dopamine receptor): 2.9 µM
Ki [2]: 0.006 µM

CC(C)Nc1nc(N2CCN(C)CC2)nc(Cl)c1Cl
Ki [1]: 0.042 µM
Ki [4]: 0.014 µM
Ki (Dopamine receptor): 2.4 µM
Ki [2]: 0.005 µM

CSc1c(Cl)nc(N2CCN(C)CC2)nc1NC1CCCCC1
Ki [1]: 0.24 µM
Ki [2]: 0.29 µM

CC(C)Nc1nc(N2CCNCC2)nc(Cl)c1Br
Ki [1]: 0.2 µM
Ki [3]: 0.028 µM
Ki (Dopamine receptor): 0.88 µM
Ki [2]: 0.016 µM

COc1c(Cl)nc(N2CCN(C)CC2)nc1NC(C)C
Ki [1]: 0.31 µM
Ki [2]: 0.05 µM

CN1CCN(c2nc(N)c(Cl)c(Cl)n2)CC1
Ki [1]: 0.067 µM
Ki [2]: 0.05 µM

CN1CCN(c2nc(Cl)c(Cl)c(NC3CCCC3)n2)CC1
Ki [1]: 0.24 µM
Ki [4]: 0.097 µM
Ki [2]: 0.12 µM

CNc1nc(N2CCN(C)CC2)nc(Cl)c1Cl
Ki [1]: 0.004 µM
Ki (Dopamine receptor): 1.2 µM
Ki [2]: 0.044 µM

CC(C)Nc1nc(N2CCN(C)CC2)nc(Cl)c1Br
Ki [1]: 0.29 µM
Ki (Dopamine receptor): 0.48 µM
Ki [2]: 0.007 µM

Cc1c(Cl)nc(N2CCN(C)CC2)nc1NC(C)C
Ki [1]: 0.2 µM
Ki (Dopamine receptor): 0.88 µM
Ki [2]: 0.016 µM

CN1CCN(c2nc(N)c(Br)c(Cl)n2)CC1
Ki [1]: 0.82 µM
Ki (Dopamine receptor): 10 µM
Ki [2]: 1.6 µM

CN1CCN(c2nc(Cl)c(Br)c(NC3CCCC3)n2)CC1
Ki [1]: 0.25 µM
Ki [3]: 0.23 µM
Ki [2]: 0.14 µM

CSc1c(Cl)nc(N2CCN(C)CC2)nc1NCCc1ccccc1
Ki [1]: 0.18 µM
Ki (Dopamine receptor): 1.4 µM
Ki [2]: 0.91 µM

CSc1c(Cl)nc(N2CCN(C)CC2)nc1Nc1ccccc1
Ki [1]: 0.14 µM
Ki [3]: 0.5 µM
Ki [2]: 0.24 µM

CNc1cc(Cl)nc(N2CCN(C)CC2)n1
Ki [1]: 0.28 µM
Ki [3]: 0.1 µM
Ki (Dopamine receptor): 0.63 µM
Ki [2]: 0.05 µM

CSc1c(Cl)nc(N2CCN(C)CC2)nc1NC(C)C
Ki [1]: 0.36 µM
Ki (Dopamine receptor): 0.64 µM
Ki [2]: 0.026 µM

Clc1cccc(Cl)c1NC1=NCCN1 [CLONIDINE]
Ki (Dopamine receptor): > 4 µM

CNc1nc(Cl)c(SC)c(N2CCN(C)CC2)n1 [MEZILAMINE]
Ki [1]: 0.091 µM
Ki [3]: 0.012 µM
Ki [2]: 0.009 µM

CC(COc1ccccc1)N(CCCl)Cc1ccccc1 (stereo not drawn) [PHENOXYBENZAMINE]
Ki [1]: 0.0018 µM
Ki (Dopamine receptor): 0.12 µM

COC(=O)[C@@H]1[C@H]2C[C@H]3c4[nH]c5ccccc5c4CCN3C[C@@H]2CC[C@@H]1O [YOHIMBINE]
Ki (Dopamine receptor): 2 µM
